In patent US9688625B2, “Amorphous form of a thiocolchicine derivative” (priority 2014, dated 2017):

What was measured:
Assay type in all cases: physicochemical
[1] = Chemical stability on storage, analyses by HPLC; details: for variation in the chemical composition: after one month at 40±2° C./75±5% relative humidity; for time for which chemically stable (none impurity departed from its initial value): HPLC
Experimental: The analyses were performed by HPLC.

[2] = Physical stability on storage (features of FIG. 1-4 maintained); details: 40±2° C./75±5 relative humidity
Experimental: The amorphous form of compound (I) has also been found physically stable at 25±2° C./60±5% relative humidity for at least three years and at 40±2° C./75±5 relative humidity for at least 6 months, as it maintained the characteristics features reported in FIG. 1-4.

[3] = Solubility (comparison of solid forms); details: compared with other crystalline forms

SMILES	variation in the chemical composition [1] [%]	time for which chemically stable (none impurity departed from its initial value) ([1]; 25±2° C./60±5% relative humidity)	time for which chemically stable (none impurity departed from its initial value) ([1]; 40±2° C./75±5% relative humidity)	time for which physically stable (maintained features of FIG. 1-4) [2]	solubility in water [3]
COc1cc2c(c(OC)c1OC)-c1ccc(SC)c(=O)cc1[C@@H](NC(=O)CCNC(=O)N[C@H]1CCc3cc(OC)c(OC)c(OC)c3-c3ccc(SC)c(=O)cc31)CC2 (single isomer, unassigned) [crystalline IDN 5404 obtained in Example 2] [reference compound]	7	–	–	–	–
COc1cc2c(c(OC)c1OC)-c1ccc(SC)c(=O)cc1[C@@H](NC(=O)CCNC(=O)N[C@H]1CCc3cc(OC)c(OC)c(OC)c3-c3ccc(SC)c(=O)cc31)CC2 (single isomer, unassigned) [crystalline IDN 5404 obtained in Example 3] [reference compound]	4.1	–	–	–	–
COc1cc2c(c(OC)c1OC)-c1ccc(SC)c(=O)cc1[C@@H](NC(=O)CCNC(=O)N[C@H]1CCc3cc(OC)c(OC)c(OC)c3-c3ccc(SC)c(=O)cc31)CC2 [amorphous form of compound (I), IDN 5404]	–	at least three	at least 6 moths	at least 6 months	more soluble in water than other crystalline forms
